Measured values: US6432993B1, “Substituted fused heterocyclic compound” (Sankyo Company, Limited, priority 1997, dated 2002)
≈ marks a conversion by molar mass, not a printed value. Counter-ions that a name gives are not always drawn.

Experiments:
[1] = test system: lipid peroxide production, rat hepatic microsome; assay: Anti-lipid-peroxide action: inhibition of lipid peroxide production in rat hepatic microsome; type: biochemical; conditions: Wister rat hepatic microsome, ferrous sulfate/cysteine, 37° C. 30 minutes, thiobarbituric acid absorbance 535 nm
Method: Anti-lipid-peroxide Action
The inhibitory effect of the invention compound against the production of lipid peroxide was conducted using rat hepatic microsome.
To 400 μl of a 1:2 mixture of a buffer [a 0.1M aqueous tris(hydroxymethyl)aminomethane solution adjusted to pH 7.4 by hydrochloric acid] and a 0.15M aqueous potassium chloride solution were added 5 μl of a solution of a predetermined concentration of the test compound in dimethyl sulfoxide, and 100 μl of hepatic microsome prepared from Wister rat (10 week old), followed by stirring at 37° C. for 5 minutes. To initiate the reaction of said mixture, 10 μl of a 1:1 mixed solution of a 0.5 mM aqueous solution of ferrous sulfate 7 hydrate and a 50 mM aqueous cysteine solution was added and the resulting mixture was stirred at 37° C. for 30 minutes. 1 ml of a 10% aqueous solution of trichloroacetic acid was added to the reaction mixture to terminate the reaction. The reaction mixture was centrifuged at 3000 rpm at 5° C. for 10 minutes and the supernatant was separated. To 1.0 ml of the supernatant, 1.0 ml of 50% aqueous acetic acid containing 0.67% of thiobarbituric acid was added and the mixture was boiled at 100° C. for 15 minutes. After the resulting mixture was allowed to stand at room temperature for 15 minutes, the absorbance at the wavelength of 535 nm was measured. From the absorbance of the control measured without the test compound and that of the test compounds of a predetermined concentration, an inhibition rate (%) was determined and the 50% inhibition concentration of the test compound against lipid peroxide was determined.

[2] = molecular target: T1, 5-lipoxygenase (Cavia porcellus, UniProt A0A286X958); assay: 5-Lipoxygenase inhibitory action (5-HETE formation, guinea pig polymorphonuclear leukocyte enzyme); type: biochemical; conditions: 25° C. 5 minutes, 5-HETE by HPLC, read-out: IC50 (50% inhibition concentration against 5-lipoxygenase) (converted)
T1 sequence (A0A286X958 1-674): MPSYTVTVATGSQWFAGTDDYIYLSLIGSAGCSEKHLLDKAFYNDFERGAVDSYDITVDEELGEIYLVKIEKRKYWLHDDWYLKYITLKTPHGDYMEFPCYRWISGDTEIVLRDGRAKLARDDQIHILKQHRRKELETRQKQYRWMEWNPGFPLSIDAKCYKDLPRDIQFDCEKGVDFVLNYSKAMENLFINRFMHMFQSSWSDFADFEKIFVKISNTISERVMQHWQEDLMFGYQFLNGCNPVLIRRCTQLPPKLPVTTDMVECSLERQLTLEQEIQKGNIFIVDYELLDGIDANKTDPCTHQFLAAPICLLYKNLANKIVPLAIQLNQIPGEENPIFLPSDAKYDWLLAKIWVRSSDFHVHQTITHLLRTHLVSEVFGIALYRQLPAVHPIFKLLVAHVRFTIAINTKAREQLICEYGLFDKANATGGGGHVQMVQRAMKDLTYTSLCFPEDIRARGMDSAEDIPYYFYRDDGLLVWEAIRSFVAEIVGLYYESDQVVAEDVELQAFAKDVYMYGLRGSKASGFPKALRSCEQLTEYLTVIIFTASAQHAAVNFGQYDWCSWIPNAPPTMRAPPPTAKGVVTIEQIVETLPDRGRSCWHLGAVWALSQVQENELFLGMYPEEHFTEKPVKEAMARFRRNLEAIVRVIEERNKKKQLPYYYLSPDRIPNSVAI
Method: 5-Lipoxygenase Inhibitory Action
Into 5 μl of a solution of the test compound in dimethylsulfoxide, 750 μl of a 1/15M phosphate buffer (pH 7.4) which was prepared by dissolving a wrapper of phosphate buffer powder (Yatron) in 10 ml of water, 40 μl of a 30 mM aqueous calcium chloride solution, 50 μl of a 20 mM aqueous GSH (glutathione, reduced form) solution, 50 μl of a 40 mM aqueous ATP (adenosine-5-triphosphate) solution and 100 μl of guinea pig polymorphonuclear leukocyte enzyme were added, followed by stirring at 25° C. for 5 minutes. To initiate the reaction, 5 μl of […] (10 mg/ml ethanol) were added to said mixture and the mixture was stirred at 25° C. for 5 minutes. 50 μl of 2N hydrochloric acid were added to the reaction mixture to terminate the reaction. 2.0 ml of ethyl acetate containing an internal standard substance (internal standard substance: 2 μg/ml of isoamyl paraben) were then added to the reaction mixture. The resulting mixture was extracted for 1 minute by a mixer, followed by centrifugal separation at 3000 rpm for 5 minutes. The ethyl acetate layer was separated, evaporated to dryness under reduced pressure and then dissolved in 200 μl of acetonitrile. By high-performance liquid chromatography, the amount of 5-HETE formed was determined. From the determination of 5-HETE of the control without the test compounds and that of the test compounds, an inhibition rate (%) was found and the 50% inhibition concentration of the test compounds against 5-lipoxygenase was determined.

[3] = test system: KK mice which developed diabetes; assay: Hypoglycemic action in diabetic KK mice; type: in vivo; conditions: powdery food containing 0.01% test compound for three days, plasma glucose vs control; for inhibition in vivo at 0.01 % in diet: Mus musculus, po, 72 h, read-out: Blood sugar lowering rate (%)
Method: The blood sample was collected from the caudal vein of each of KK mice (4-5 month old) which developed diabetes and its blood sugar level was measured. The mice were then classified into groups (4 mice per group) so that they would be equal in the average of the blood sugar levels of the mice. For three days, powdery food (F-1, produced by Funabashi Farm) adjusted to contain the test compound in an amount of 0.01% was administered to mice. The mouse group to which the test compound was administered refers to “the medicine administered group”, while that to which the powdery food free of the test compound was administered refers to “the control”. After three days, the blood sample was collected from the caudal vein of each of the mice and the glucose concentration in the plasma obtained by centrifugal separation was measured by a glucose analyzer (“Glucoroder”, A&T Inc.). The blood-sugar lowering rate was calculated from the following equation:
Blood sugar lowering rate (%)=(average blood sugar level of the control−average blood sugar level of the medicine administered group)×100/the blood sugar level of the control

| SMILES | IC50 (50% inhibition concentration against lipid peroxide) [1] [µg/mL] | inhibition in vivo at 0.01 % in diet [3] [%] | further results |
| --- | --- | --- | --- |
| Cc1cc(O)ccc1Oc1ccc2nc(COc3ccc(CC4SC(=O)NC4=O)cc3)n(C)c2c1.Cl (stereo not shown) |  |  | melting point: 165 to 168 °C |
| Cc1cc(Oc2ccc3nc(COc4ccc(CC5SC(=O)NC5=O)cc4)n(C)c3n2)c(C)c(C)c1O (stereo not shown) [Example 1-2a, 5-{4-[5-(4-Hydroxy-2,3,5-trimethylphenoxy)-3-methyl-3H-imidazo[4,5-b]pyridin-2-ylmethoxy]benzyl}thiazolidine-2,4-dione] | 0.97 (≈ 1.87 µM) |  | IC50 [2]: 1140 nM |
| Cc1cc(Oc2ccc3nc(COc4ccc(CC5SC(=O)NC5=O)cc4)n(C)c3n2)c(C)c(C)c1O (stereo not shown) [Example 1-2b, 5-{4-[5-(4-Hydroxy-2,3,5-trimethylphenoxy)-3-methyl-3H-imidazo[4,5-b]pyridin-2-ylmethoxy]benzyl}thiazolidine-2,4-dione hydrochloride] |  | 48.1 |  |
| Cc1cc(Oc2ccc3nc(COc4ccc(CC5SC(=O)NC5=O)cc4)n(C)c3c2)c(C)c(C)c1O (stereo not shown) [Example 2-2a, 5-{4-[6-(4-Hydroxy-2,3,5-trimethylphenoxy)-1-methyl-1H-benzimidazol-2-ylmethoxy]benzyl}thiazolidine-2,4-dione] | 0.54 (≈ 1.04 µM) |  | IC50 [2]: 193 nM |
| Cc1cc(Oc2ccc3nc(COc4ccc(CC5SC(=O)NC5=O)cc4)n(C)c3c2)c(C)c(C)c1O (stereo not shown) [Example 2-2b, 5-{4-[6-(4-Hydroxy-2,3,5-trimethylphenoxy)-1-methyl-1H-benzimidazol-2-ylmethoxy]benzyl}thiazolidine-2,4-dione hydrochloride] |  | 49.2 |  |
| Cn1c(COc2ccc(CC3SC(=O)NC3=O)cc2)nc2ccc(Oc3ccc(O)cc3)cc21 (stereo not shown) [Example 3-2, 5-{4-[6-(4-Hydroxyphenoxy)-1-methyl-1H-benzimidazol-2-ylmethoxy]benzyl}thiazolidine-2,4-dione] |  | 60.1 |  |
| Cc1cc(Oc2ccc3nc(COc4ccc(CC5SC(=O)NC5=O)cc4)n(C)c3c2)cc(C)c1O (stereo not shown) [Example 4-2a, 5-{4-[6-(4-Hydroxy-3,5-dimethylphenoxy)-1-methyl-1H-benzimidazol-2-ylmethoxy]benzyl}thiazolidine-2,4-dione] | 0.83 (≈ 1.65 µM) | 67.5 | IC50 [2]: 397 nM |
| Cc1cc(Oc2ccc3nc(COc4ccc(CC5SC(=O)NC5=O)cc4)n(C)c3c2)c(Cl)c(C)c1O.Cl (stereo not shown) [Example 5b, 5-{4-[6-(2-Chloro-4-hydroxy-3,5-dimethylphenoxy)-1-methyl-1H-benzimidazol-2-ylmethoxy]benzyl}thiazolidine-2,4-dione hydrochloride] | 1.3 |  | IC50 [2]: 923 nM |
| Cn1c(COc2ccc(CC3SC(=O)NC3=O)cc2)nc2ccc(Oc3ccccn3)cc21 (stereo not shown) [Example 6-2, 5-{4-[6-(Pyridin-2-yloxy)-1-methyl-1H-benzimidazol-2-ylmethoxy]benzyl}thiazolidine-2,4-dione] |  | 62.6 |  |
| Cl.Cn1c(COc2ccc(CC3SC(=O)NC3=O)cc2)nc2ccc(Sc3cc(C(C)(C)C)c(O)c(C(C)(C)C)c3)cc21.Cn1c(COc2ccc(CC3SC(=O)NC3=O)cc2)nc2ccc(Sc3cc(C(C)(C)C)c(O)c(C(C)(C)C)c3)cc21 (stereo not shown) [Example 7-2a, 5-{4-[6-(3,5-Di-t-butyl-4-hydroxyphenylthio)-1-methyl-1H-benzimidazol-2-ylmethoxy]benzyl}thiazolidine-2,4-dione 1/2 hydrochloride] | 0.65 |  | Blood sugar lowering rate (%) [3]: 71.7% |
| Cc1cc(Oc2ccc3nc(COc4ccc(CC5SC(=O)NC5=O)cc4)n(C)c3c2)cc(C)c1N.Cl.Cl (stereo not shown) [Example 8-2b, 5-{4-[6-(4-Amino-3,5-dimethylphenoxy)-1-methyl-1H-benzimidazol-2-ylmethoxy]benzyl}thiazolidine-2,4-dione dihydrochloride] | 3.2 |  |  |
| Cn1c(COc2ccc(CC3SC(=O)NC3=O)cc2)nc2ccc(Sc3ccccn3)cc21 (stereo not shown) [Example 13-2b, 5-{4-[1-Methyl-6-(pyridin-2-ylthio)-1H-benzimidazole-2-ylmethoxy]benzyl}thiazolidine-2,4-dione dihydrochloride] |  | 68.1 |  |
| Cn1c(COc2ccc(CC3SC(=O)NC3=O)cc2)nc2ccc(Oc3ccc(-n4ccnc4)cc3)cc21 (stereo not shown) [Example 19-2, 5-{4-(6-[4-(Imidazole-1-yl)phenoxy]-1-methyl-1H-benzimidazole-2-ylmethoxy)benzyl}thiazolidine-2,4-dione dihydrochloride] |  | 66.8 |  |
| Cc1ccc(Sc2ccc3nc(COc4ccc(CC5SC(=O)NC5=O)cc4)n(C)c3c2)cc1 (stereo not shown) [Example 34-2b, 5-{4-[1-Methyl-6-(4-methylthiophenoxy)-1H-benzimidazole-2-ylmethoxy]benzyl}thiazolidine-2,4-dione hydrochloride] |  | 71.2 |  |
| Cn1c(COc2ccc(CC3SC(=O)NC3=O)cc2)nc2ccc(Oc3ccc(C#N)cc3)cc21 (stereo not shown) [Example 40, 5-{4-[6-(4-Cyanophenoxy)-1-methyl-1H-benzimidazole-2-ylmethoxy]benzyl}thiazolidine-2,4-dione hydrochloride] |  | 66.4 |  |
| Cn1c(COc2ccc(CC3SC(=O)NC3=O)cc2)nc2ccc(Oc3ccc(NC(=O)c4cccnc4)cc3)cc21 (stereo not shown) [Example 51, 5-{4-[6-(4-Nicotinoylaminophenoxy)-1-methyl-1H-benzimidazole-2-ylmethoxy]benzyl}thiazolidine-2,4-dione] |  | 63.6 |  |
